Laboratory results as given in patent US20120270237A9, “METHODS FOR THE IDENTIFICATION OF KINASE INTERACTING MOLECULES AND FOR THE PURIFICATION OF KINASE PROTEINS” (Cellzone AG, priority 2009, published 2012).

Tests used:
Assay in all cases: Kinobeads competition binding, HL60 cell lysate
Settings in all cases: 10 μM free compound
[1] = biological target: T1, CDK10 (Homo sapiens, UniProt Q15131)
T1 construct: endogenous in cells; host or cells: HL60 cells
Procedure: (§1) To one aliquot of cell lysate 10 μM of the free compound (FIG. 3, CZC31326) was added and allowed to bind to proteins in the lysate. Then the affinity matrix with the immobilized compound (Example 1) was added to capture proteins that were not interacting with the previously added free compound. Beads were separated from the lysate and bead bound proteins were eluted in SDS sample buffer and subsequently separated by SDS-Polyacrylamide gel electrophoresis (FIG. 4). Suitable gel bands were cut out and subjected to in-gel proteolytic digestion with trypsin. The second lysate aliquot was processed identically, however no free compound was added (DMSO solvent control). Peptides originating from samples 1 and 2 were labeled with iTRAQ reagents (iTRAQ 114 and iTRAQ 117) and the combined samples were analyzed with a nano-flow liquid chromatography system coupled online to a tandem mass spectrometer (LC-MS/MS) experiment followed by iTRAQ reporter ion quantification in the MS/MS spectra (Ross et al., 2004. Mol. Cell. Proteomics 3(12):1154-1169). Further experimental protocols can be found in WO2006/134056 and a previous publication (Bantscheff et al., 2007. Nature Biotechnology 25, 1035-1044). Sepharose-beads with the immobilized compound (100 μl beads per pull-down experiment) were equilibrated in lysis buffer and incubated with a cell lysate sample containing 50 mg of protein on an end-over-end shaker (Roto Shake Genie, Scientific Industries Inc.) for 2 hours at 4° C. Beads were collected, transferred to Mobicol-columns (MoBiTech 10055) and washed with 10 ml lysis buffer containing 0.4% NP40 detergent, followed by 5 ml lysis buffer containing 0.2% detergent. To elute bound proteins, 60 μl 2×SDS sample buffer was added to the column. The column was incubated for 30 minutes at 50° C. and the eluate was transferred to a siliconized microfuge tube by centrifugation. Proteins were then alkylated with 108 mM iodoacetamid. Proteins were then separated by SDS-Polyacrylamide electrophoresis (SDS-PAGE). The peptide extracts of samples treated with 10 μM of free compound (CZC31326) and the solvent control (0.5% DMSO) were treated with different variants of the isobaric tagging reagent (iTRAQ Reagents Multiplex Kit, part number 4352135, Applied Biosystems, Foster City, Calif., USA). The iTRAQ reagents are a set of multiplexed, amine-specific, stable isotope reagents that can label peptides on amino groups in up to four different biological samples enabling simultaneous identification and quantitation of peptides. The iTRAQ reagents were used according to instructions provided by the manufacturer. The samples were resuspended in 10 μl 50 mM TEAB solution, pH 8.5 and 10 μl ethanol were added. The iTRAQ reagent was dissolved in 120 μl ethanol and 10 μl of reagent solution were added to the sample. The labeling reaction was performed at room temperature for one hour on a horizontal shaker and stopped by adding 5 μl of 100 mM TEAB and 100 mM glycine in water. The two labeled sampled were then combined, dried in a vacuum centrifuge and resuspended in 10 μl of 0.1% formic acid in water. Relative protein quantitation was performed using peak areas of iTRAQ reporter ion signals essentially as described in an earlier publication (Bantscheff et al., 2007. Nature Biotechnology 25, 1035-1044).

[2] = biological target: T2, CRK7 (Homo sapiens, UniProt Q9NYV4)
T2 construct: endogenous in cells; host or cells: HL60 (DSMZ ACC3)
Procedure: as §1

[3] = biological target: T3, GAK (Homo sapiens, UniProt O14976)
T3 sequence (O14976 1-1311): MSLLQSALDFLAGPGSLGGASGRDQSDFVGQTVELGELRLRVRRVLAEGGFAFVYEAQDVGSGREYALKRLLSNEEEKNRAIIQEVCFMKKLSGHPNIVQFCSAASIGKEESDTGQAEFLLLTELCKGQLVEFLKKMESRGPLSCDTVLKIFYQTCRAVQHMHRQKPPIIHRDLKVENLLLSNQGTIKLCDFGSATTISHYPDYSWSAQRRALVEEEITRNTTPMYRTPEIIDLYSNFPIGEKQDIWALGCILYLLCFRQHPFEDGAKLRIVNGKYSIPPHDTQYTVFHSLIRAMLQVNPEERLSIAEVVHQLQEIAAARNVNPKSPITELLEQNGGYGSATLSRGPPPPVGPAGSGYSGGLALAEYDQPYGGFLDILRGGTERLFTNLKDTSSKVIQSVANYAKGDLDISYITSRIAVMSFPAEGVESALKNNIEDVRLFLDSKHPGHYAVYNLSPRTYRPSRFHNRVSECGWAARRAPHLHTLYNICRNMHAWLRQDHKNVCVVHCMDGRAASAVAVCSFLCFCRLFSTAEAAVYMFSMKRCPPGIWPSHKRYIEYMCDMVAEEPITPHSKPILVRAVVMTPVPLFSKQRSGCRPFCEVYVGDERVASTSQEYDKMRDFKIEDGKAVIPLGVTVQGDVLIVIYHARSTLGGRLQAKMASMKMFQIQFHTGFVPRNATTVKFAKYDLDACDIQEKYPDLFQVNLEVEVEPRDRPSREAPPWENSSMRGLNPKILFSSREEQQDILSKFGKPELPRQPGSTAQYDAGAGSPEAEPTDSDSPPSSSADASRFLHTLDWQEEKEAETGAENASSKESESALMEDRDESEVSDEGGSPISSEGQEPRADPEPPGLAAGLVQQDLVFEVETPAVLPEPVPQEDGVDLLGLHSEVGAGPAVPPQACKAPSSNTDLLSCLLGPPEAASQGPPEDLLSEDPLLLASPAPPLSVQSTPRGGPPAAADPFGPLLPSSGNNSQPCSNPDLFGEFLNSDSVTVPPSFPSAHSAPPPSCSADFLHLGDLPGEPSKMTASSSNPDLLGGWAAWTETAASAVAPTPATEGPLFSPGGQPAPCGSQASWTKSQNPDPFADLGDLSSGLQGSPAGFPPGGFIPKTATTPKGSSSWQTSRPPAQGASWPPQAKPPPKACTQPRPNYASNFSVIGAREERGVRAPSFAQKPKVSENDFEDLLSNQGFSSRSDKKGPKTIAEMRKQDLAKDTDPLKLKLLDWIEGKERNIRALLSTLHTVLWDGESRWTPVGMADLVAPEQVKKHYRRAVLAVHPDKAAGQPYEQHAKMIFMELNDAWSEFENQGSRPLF
Procedure: as §1

[4] = biological target: T4, MST4 (Homo sapiens, UniProt Q9P289)
T4 construct: endogenous in cells; host or cells: HL60
Procedure: as §1

[5] = biological target: T5, PKCb (Homo sapiens, UniProt P05771)
T5 construct: endogenous in cells; host or cells: HL60
Procedure: as §1

[6] = biological target: T6, RET (Homo sapiens, UniProt P07949)
T6 construct: endogenous in cells; host or cells: HL60 cells
Procedure: as §1

T2 sequence (Q9NYV4 whole entry): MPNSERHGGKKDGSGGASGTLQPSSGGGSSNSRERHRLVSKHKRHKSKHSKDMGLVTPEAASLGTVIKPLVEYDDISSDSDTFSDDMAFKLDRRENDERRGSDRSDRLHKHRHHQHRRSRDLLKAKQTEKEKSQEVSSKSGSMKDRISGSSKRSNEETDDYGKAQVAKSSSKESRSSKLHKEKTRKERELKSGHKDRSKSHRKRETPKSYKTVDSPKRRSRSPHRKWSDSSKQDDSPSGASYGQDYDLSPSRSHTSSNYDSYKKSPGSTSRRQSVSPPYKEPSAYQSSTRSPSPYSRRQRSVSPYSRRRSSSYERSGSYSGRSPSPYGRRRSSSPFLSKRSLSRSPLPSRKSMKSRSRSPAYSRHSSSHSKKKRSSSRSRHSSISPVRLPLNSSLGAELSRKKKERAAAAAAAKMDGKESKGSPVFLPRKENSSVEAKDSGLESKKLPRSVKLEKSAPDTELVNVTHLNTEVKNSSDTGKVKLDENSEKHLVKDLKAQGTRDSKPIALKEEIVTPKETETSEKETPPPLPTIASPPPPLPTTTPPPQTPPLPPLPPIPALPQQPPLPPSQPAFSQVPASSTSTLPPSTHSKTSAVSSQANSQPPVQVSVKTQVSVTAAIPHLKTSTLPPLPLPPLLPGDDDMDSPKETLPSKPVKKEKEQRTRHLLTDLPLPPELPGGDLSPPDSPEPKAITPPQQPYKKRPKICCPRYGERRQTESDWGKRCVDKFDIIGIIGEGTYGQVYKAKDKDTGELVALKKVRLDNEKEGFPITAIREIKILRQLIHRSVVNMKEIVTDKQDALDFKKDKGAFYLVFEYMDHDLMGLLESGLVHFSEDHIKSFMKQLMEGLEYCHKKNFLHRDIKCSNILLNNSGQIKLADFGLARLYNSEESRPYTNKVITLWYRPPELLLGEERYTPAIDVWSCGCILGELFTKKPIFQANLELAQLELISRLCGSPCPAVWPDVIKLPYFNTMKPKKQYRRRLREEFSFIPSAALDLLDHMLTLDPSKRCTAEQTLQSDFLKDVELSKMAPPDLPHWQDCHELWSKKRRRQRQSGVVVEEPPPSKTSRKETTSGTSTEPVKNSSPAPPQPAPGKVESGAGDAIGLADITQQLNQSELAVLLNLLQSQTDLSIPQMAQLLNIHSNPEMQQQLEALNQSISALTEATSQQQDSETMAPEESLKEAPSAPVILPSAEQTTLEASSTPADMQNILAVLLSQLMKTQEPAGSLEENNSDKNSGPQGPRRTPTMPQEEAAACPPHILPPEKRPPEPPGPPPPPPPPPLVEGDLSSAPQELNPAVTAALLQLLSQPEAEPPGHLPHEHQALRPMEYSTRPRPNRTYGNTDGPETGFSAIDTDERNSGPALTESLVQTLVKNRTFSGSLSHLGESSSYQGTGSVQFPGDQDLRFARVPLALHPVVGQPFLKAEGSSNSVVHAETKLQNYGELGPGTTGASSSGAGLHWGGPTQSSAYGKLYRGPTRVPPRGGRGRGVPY
T2 sequence (O75909 whole entry partner): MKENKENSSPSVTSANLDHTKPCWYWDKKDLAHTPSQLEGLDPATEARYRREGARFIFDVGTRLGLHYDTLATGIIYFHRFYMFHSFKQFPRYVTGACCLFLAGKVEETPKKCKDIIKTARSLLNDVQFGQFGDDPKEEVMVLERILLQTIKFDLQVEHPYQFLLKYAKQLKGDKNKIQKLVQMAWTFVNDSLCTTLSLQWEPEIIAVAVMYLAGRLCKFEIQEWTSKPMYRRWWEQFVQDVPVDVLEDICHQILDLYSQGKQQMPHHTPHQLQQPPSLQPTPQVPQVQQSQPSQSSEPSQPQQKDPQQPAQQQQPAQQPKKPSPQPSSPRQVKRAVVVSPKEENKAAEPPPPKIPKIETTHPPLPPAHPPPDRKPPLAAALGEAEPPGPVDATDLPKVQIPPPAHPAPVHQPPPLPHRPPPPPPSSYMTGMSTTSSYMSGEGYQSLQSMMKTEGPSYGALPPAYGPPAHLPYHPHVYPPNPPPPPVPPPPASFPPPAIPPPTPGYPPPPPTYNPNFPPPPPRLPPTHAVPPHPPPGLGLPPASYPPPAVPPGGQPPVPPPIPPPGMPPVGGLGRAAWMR
T6 sequence (P07949 29-1114): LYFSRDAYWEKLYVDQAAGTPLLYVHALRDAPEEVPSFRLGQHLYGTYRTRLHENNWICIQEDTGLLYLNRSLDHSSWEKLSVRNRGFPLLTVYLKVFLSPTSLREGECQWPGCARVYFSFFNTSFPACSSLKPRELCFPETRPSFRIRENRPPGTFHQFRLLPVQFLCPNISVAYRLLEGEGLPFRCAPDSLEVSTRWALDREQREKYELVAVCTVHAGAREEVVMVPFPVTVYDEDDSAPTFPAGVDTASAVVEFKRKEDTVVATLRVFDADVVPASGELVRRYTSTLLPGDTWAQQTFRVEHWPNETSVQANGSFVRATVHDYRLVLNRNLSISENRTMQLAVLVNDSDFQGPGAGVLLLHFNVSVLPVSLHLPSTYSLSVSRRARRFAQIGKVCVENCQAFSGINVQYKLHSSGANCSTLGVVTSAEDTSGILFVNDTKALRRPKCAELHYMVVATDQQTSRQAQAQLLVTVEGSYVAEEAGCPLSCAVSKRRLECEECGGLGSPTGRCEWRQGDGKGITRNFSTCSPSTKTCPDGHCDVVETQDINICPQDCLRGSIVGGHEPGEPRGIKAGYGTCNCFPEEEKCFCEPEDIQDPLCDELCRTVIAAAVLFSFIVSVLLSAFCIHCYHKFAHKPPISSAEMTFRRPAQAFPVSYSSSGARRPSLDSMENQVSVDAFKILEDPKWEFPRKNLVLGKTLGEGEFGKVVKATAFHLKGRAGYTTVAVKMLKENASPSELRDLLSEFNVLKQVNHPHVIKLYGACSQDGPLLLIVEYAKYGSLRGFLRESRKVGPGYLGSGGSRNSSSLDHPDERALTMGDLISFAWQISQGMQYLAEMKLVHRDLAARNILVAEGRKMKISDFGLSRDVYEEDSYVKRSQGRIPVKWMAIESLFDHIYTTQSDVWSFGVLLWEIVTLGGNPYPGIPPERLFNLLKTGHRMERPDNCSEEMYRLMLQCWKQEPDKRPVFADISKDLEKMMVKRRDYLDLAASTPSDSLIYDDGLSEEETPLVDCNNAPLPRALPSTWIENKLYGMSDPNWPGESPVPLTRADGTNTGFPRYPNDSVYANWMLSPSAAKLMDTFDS
T4 sequence (Q9P289 whole entry): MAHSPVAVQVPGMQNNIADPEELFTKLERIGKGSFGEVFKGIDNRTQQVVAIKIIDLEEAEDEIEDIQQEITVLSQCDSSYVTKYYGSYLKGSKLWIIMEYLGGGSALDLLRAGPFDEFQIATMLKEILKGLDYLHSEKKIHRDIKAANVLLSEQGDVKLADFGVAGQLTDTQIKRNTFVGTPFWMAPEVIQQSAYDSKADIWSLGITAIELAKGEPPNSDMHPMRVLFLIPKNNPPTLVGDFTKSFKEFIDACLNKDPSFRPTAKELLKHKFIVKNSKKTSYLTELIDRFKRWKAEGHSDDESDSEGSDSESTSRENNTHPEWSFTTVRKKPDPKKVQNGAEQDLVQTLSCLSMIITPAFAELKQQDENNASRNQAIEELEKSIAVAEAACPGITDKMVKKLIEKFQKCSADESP
T1 sequence (Q15131 whole entry): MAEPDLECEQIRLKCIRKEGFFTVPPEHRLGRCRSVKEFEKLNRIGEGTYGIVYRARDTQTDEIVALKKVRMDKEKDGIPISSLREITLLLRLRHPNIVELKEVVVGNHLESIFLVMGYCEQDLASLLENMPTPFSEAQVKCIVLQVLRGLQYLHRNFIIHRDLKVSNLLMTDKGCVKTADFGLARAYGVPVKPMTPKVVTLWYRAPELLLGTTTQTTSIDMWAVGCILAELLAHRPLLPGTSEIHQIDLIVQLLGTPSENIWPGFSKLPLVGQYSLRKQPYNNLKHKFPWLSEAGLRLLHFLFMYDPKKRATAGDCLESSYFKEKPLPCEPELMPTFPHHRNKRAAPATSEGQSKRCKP
T5 sequence (P05771 whole entry): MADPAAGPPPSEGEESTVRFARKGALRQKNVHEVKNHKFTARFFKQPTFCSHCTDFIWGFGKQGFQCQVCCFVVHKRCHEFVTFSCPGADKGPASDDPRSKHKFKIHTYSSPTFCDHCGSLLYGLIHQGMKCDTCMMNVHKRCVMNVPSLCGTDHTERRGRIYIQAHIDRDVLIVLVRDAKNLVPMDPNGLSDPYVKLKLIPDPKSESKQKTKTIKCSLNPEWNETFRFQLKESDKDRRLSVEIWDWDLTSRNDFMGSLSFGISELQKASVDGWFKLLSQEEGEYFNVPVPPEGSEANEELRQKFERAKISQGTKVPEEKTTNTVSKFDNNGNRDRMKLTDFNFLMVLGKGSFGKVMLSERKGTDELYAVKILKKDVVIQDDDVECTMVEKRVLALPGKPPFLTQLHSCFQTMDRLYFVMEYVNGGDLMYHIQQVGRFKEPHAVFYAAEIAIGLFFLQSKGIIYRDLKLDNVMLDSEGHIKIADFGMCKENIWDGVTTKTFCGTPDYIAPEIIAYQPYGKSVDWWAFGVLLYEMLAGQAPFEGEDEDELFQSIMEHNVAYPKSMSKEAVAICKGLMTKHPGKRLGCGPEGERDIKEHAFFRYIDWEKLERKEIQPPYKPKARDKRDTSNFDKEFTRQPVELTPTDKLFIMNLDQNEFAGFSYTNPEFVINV

inhibition at 10 µM [1]: 96.7%
Competition % [2]: 92.1%
inhibition at 10 µM [3]: 97.9%
inhibition at 10 µM [4]: 96.1%
inhibition at 10 µM [5]: 97.3%
inhibition at 10 µM [6]: 97.1%
Structure (SMILES): CS(=O)(=O)Nc1ccccc1Nc1nc(Nc2cccc(OCCN)c2)ncc1Cl [CZC31326, N-(2-(2-(3-(2-aminoethoxy)phenylamino)-5-chloropyrimidin-4-ylamino)phenyl)methanesulfonamide]
